{
  "source": "patent US4743610A",
  "about": "“N-[ω(3-pyridinyl)alkyl]benzamides, useful as thromboxane synthetase enzyme and/or cardioprotective agents” (American Cyanamid Company, priority 1987, dated 1988)",
  "key": {"[1]": {"test_system": "Sprague-Dawley rats", "assay": "In Vivo Test for the Prevention of Death Due to Infarction", "conditions": "3 rats infarcted, 10 mg/kg intraperitoneal 1 h before 10 mg/kg s.c. (-)isoproternol hydrochloride, observed 2.5 hours; for responders at 10 mg/kg: Rattus norvegicus, ip, read-out: % Survival", "description": "Beitz, Toxicology and Applied Pharmacology 62, 152-157 (1982) was performed as follows:\nIn Vivo Test for the Prevention of Death Due to Infarction\nSprague-Dawley rats were pretreated with an intraperitoneal injection of the test compound at 10 mg/kg of body weight. One hour later, a myocardial infarction was induced by injection 10 mg/kg of (-)isoproternol hydrochloride subcutaneously. Each compound was tested in at least three rats. […] The compound is considered \"in vivo active\" in those groups in which all animals survive the myocardial infarction."}, "[2]": {"biological_target": "T1, thromboxane synthetase enzyme (Rattus norvegicus, UniProt P49430)", "T1 construct": "The platelets were isolated by centrifuging the PRP for 10 minutes; endogenous in cells; host or cells: washed platelets from arterial blood of Okamoto-Aoki spontaneously hypertensive rats (SHR; animals from Taconic Farms, Germantown, N.Y.)", "T1 sequence (P49430 1-533)": "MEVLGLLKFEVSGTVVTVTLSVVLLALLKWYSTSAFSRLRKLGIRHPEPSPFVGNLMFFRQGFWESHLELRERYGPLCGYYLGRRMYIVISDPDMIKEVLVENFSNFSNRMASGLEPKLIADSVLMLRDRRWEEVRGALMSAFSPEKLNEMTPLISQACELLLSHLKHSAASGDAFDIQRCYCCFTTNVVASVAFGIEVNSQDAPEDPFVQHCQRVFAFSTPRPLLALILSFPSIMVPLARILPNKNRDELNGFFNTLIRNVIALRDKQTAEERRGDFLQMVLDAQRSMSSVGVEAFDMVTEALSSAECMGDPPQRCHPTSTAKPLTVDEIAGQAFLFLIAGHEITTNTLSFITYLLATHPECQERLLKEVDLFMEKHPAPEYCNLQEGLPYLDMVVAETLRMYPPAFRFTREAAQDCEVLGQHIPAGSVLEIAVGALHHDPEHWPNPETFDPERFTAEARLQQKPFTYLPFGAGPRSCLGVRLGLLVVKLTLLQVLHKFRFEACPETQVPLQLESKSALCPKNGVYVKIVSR", "assay": "Inhibition of thromboxane formation (TXB2 RIA) in washed platelets of spontaneously hypertensive rats", "type": "cell-based, Okamoto-Aoki spontaneously hypertensive rats (SHR)", "conditions": "SHR platelets, 10 minutes at 37° C.; drug concentration not given", "description": "Under urethan anesthesia, […] of arterial blood was collected in one ml. of 3.2% sodium citrate in a polystyrene tube from Okamoto-Aoki spontaneously hypertensive rats (SHR) (Taconic Farms, Germantown, N.Y.) between 19 and 24 weeks in age. The blood was diluted with 3 ml. of cold saline and centrifuged at room temperature for 15 minutes at 460×g. The platelet rich plasma (PRP) was separated. The platelets were isolated by centrifuging the PRP for 10 minutes at 1060 xg and were washed in 4 ml. of cold oxygenated Krebs phosphate buffer, pH 7.4. The chilled platelets recovered from centrifuging at 800×g for 10 minutes were resuspended in oxygenated Krebs phosphate buffer and diluted to contain 4.5-6.0×10^4 platelets/μl. The inhibition of thromboxane (TX) formation was studied by determining the concentration of thromboxane B2 (TXB2), the stable hydrolysis product of TXA2. Assay samples, prepared on ice, contained 200 μl platelet suspension, 50 μl saline, and 50 μl vehicle or drug under study (OKY1581, UK-37248-01, 1-benzylimidazole, or indomethacin). The samples were incubated for 10 minutes at 37° C. in a metabolic shaker. The reaction was terminated by immersing the tubes in an ice bath and adding 50 μl of 0.5M citric acid. The samples were centrifuged for 10 minutes in a refrigerated centrifuge and the supernatants thus obtained were decanted and stored at -20° C. The TXB2 content for each sample was determined by a direct radioimmunoassay (RIA) utilizing a TXB2 specific RIA kit purchased from New England Nuclear, Boston, MA. and expressed as pg TXB2 formed minute^-1 sample^-1, from which the percent inhibition of TXB2 formation was calculated."}},
  "note": "Counter-ions that a name gives are not always drawn.",
  "data": [
    {"molecule": "Cc1ccc(N)c(C(=O)NCCCCc2cccnc2)c1.Cl.Cl", "note": "[Example 7, 2-Amino-5-methyl-N-[4-(3-pyridinyl)butyl]benzamide dihydrochloride]", "values": [
      {"measurement": "No. of Rats Surviving", "setting": "[1]", "result": 3},
      {"measurement": "responders at 10 mg/kg", "setting": "[1]", "result": 100, "unit": "%"},
      {"measurement": "% Inhibition (of TXB2 formation)", "setting": "[2]", "result": 100, "unit": "%"}
    ]},
    {"molecule": "O=C(O)c1ccccc1C(=O)NCCCCc1cccnc1", "note": "[Example 13, 2-[[[4-(3-Pyridinyl]butyl]amino]carbonyl]benzoic acid]", "values": [
      {"measurement": "% Inhibition (of TXB2 formation)", "setting": "[2]", "result": 92, "unit": "%"}
    ]},
    {"molecule": "Nc1ccc(Cl)cc1C(=O)NCCCc1cccnc1", "note": "[2-Amino-5-chloro-N--[3-(3-pyridinyl)propyl]benzamide dihydrochloride]", "values": [
      {"measurement": "% Inhibition (of TXB2 formation)", "setting": "[2]", "result": 98, "unit": "%"}
    ]},
    {"molecule": "Cl.Cl.Nc1ccc(Cl)cc1C(=O)NCCCCc1cccnc1", "note": "[Example 3, 2-Amino-5-chloro-N-[4-(3-pyridinyl)butyl]benzamide dihydrochloride]", "values": [
      {"measurement": "No. of Rats Surviving", "setting": "[1]", "result": 3},
      {"measurement": "responders at 10 mg/kg", "setting": "[1]", "result": 100, "unit": "%"}
    ]},
    {"molecule": "O=C(O)c1ccccc1C(=O)NCCc1cccnc1", "note": "[Example 12, 2-[[[2-(3-Pyridinyl)ethyl]amino]carbonyl]benzoic acid]", "values": [
      {"measurement": "No. of Rats Surviving", "setting": "[1]", "result": 3},
      {"measurement": "responders at 10 mg/kg", "setting": "[1]", "result": 100, "unit": "%"}
    ]},
    {"molecule": "Nc1cc(Cl)ccc1C(=O)NCCCc1cccnc1", "note": "[2-Amino-4-chloro-N--[3-(3-pyridinyl)propyl]benzamide, dihydrochloride]", "values": [
      {"measurement": "No. of Rats Surviving", "setting": "[1]", "result": 3},
      {"measurement": "responders at 10 mg/kg", "setting": "[1]", "result": 100, "unit": "%"}
    ]},
    {"molecule": "O=C(O)c1ccc(Cl)cc1C(=O)NCCCCc1cccnc1", "note": "[Example 14, 4-Chloro-2-[[[4-(3-pyridinyl)butyl]amino]carbonyl]benzoic acid]", "values": [
      {"measurement": "No. of Rats Surviving", "setting": "[1]", "result": 3},
      {"measurement": "responders at 10 mg/kg", "setting": "[1]", "result": 100, "unit": "%"},
      {"measurement": "% Inhibition (of TXB2 formation)", "setting": "[2]", "result": 100, "unit": "%"}
    ]},
    {"molecule": "Cl.Cl.Nc1cc(Cl)ccc1C(=O)NCCCCc1cccnc1", "note": "[Example 6, 2-Amino-4-Chloro-N-[4-(3-pyridinyl)butyl]benzamide dihydrochloride]", "values": [
      {"measurement": "No. of Rats Surviving", "setting": "[1]", "result": 3},
      {"measurement": "responders at 10 mg/kg", "setting": "[1]", "result": 100, "unit": "%"}
    ]},
    {"molecule": "Nc1cc(Cl)ccc1C(=O)NCCCc1cccnc1", "note": "[Example 9, 2-Amino-4-chloro-N-[3-(3-pyridinyl)propyl]benzamide]", "values": [
      {"measurement": "% Inhibition (of TXB2 formation)", "setting": "[2]", "result": 95, "unit": "%"}
    ]},
    {"molecule": "CNc1ccc(Cl)cc1C(=O)NCCCCc1cccnc1.Cl.Cl", "note": "[Example 4, 5-Chloro-2-(methylamino)-N-[4-(3-pyridinyl)butyl]benzamide dihydrochloride]", "values": [
      {"measurement": "% Inhibition (of TXB2 formation)", "setting": "[2]", "result": 99, "unit": "%"}
    ]},
    {"molecule": "Nc1ccccc1C(=O)NCCc1cccnc1", "note": "[Example 1, 2-Amino-N-[2-(3-pyridinyl)ethyl]benzamide]", "values": [
      {"measurement": "No. of Rats Surviving", "setting": "[1]", "result": 3},
      {"measurement": "responders at 10 mg/kg", "setting": "[1]", "result": 100, "unit": "%"}
    ]},
    {"molecule": "Cl.Cl.Nc1c(C(=O)NCCCc2cccnc2)cccc1C(F)(F)F", "note": "[Example 11, 2-Amino-N-[3-(3-pyridinyl)propyl]-3-(trifluoromethyl)benzamide dihydrochloride]", "values": [
      {"measurement": "% Inhibition (of TXB2 formation)", "setting": "[2]", "result": 98, "unit": "%"}
    ]},
    {"molecule": "Cl.Cl.Nc1ccccc1C(=O)NCCCCc1cccnc1", "note": "[Example 2, 2-Amino-N-[4-(3-pyridinyl)butyl]benzamide dihydrochloride]", "values": [
      {"measurement": "No. of Rats Surviving", "setting": "[1]", "result": 3},
      {"measurement": "responders at 10 mg/kg", "setting": "[1]", "result": 100, "unit": "%"},
      {"measurement": "% Inhibition (of TXB2 formation)", "setting": "[2]", "result": 97, "unit": "%"}
    ]}
  ]
}
